The text below walks through data of patent US20250019374A1, “PROTEIN TYROSINE PHOSPHATASE INHIBITORS AND METHODS OF USE THEREOF” (Calico Life Sciences LLC, priority 2021, published 2025).

Like-named read-outs stand apart in the source and are kept apart here.

For test [1], the target named is His tagged PTPN2 (TC45) protein (Homo sapiens (Human), UniProt P17706). Nature of the test: PTPN2 Mobility Shift Assay (MSA). Particulars: for Dihydrobenzofuran or Indoline x-fold>potency biochemical: x-fold versus corresponding chromane comparator, PTPN2 MSA. Type of test: biochemical. As to the method:
Example III-1: Mobility Shift Assay (MSA) Used to Determine Potency of PTPN2 Inhibitors
Compound activity was determined using in house His tagged PTPN2 (TC45) protein (SEQ ID NO: 1) in an in vitro enzymatic reaction. The enzymatic assay used to determine activity was a mobility shift assay using a LabChip EZ Reader by Caliper Life Sciences. The enzymatic reaction was carried out in assay buffer (50 mM HEPES pH 7.5, 1 mM EGTA, 10 mM EDTA, 0.01% Tween® 20, and 2 mM DTT). The compounds were dispensed on a white 384 well ProxiPlate™ (PerkinElmer Catalog #6008289) plate using the Labcyte Echo at varying concentrations (12 point, 1:3 dilution). The enzyme (at 0.5 nM) was incubated with compound for 10 minutes at room temperature. Thereafter, the substrate (phosphorylated insulin receptor probe sequence: ((OG488)-(NH—CH2—CH2—O—CH2—CH2—O—CH2—CO)-T-R-D-I—(PY)-E-T-D-Y—Y—R—K—K—NH2) (SEQ ID NO: 2) was added at 2 μM to the plates and incubated for another 10 minutes at room temperature. Finally, a quench solution (water and 4-bromo-3-(2-oxo-2-propoxyethoxy)-5-(3-{[1-(phenylmethanesulfonyl)piperidin-4-yl]amino}phenyl)thiophene-2-carboxylic acid) was added to the plates, which were then run on the EZ Reader (excitation 488 nm, emission 530 nm) to measure % conversion (the amount of phosphorylated substrate which was de-phosphorylated by PTPN2). […] The % inhibition was then used to calculate the IC50 values.

Test [2] concerns the target His tagged full-length PTPN1 protein (Homo sapiens (Human), UniProt P18031). Kind of test: PTPN1 Mobility Shift Assay (MSA). Type of test: biochemical. The following applies: enzyme 0.5 nM, substrate 2 μM. As to the method:
Example III-2: Mobility Shift Assay (MSA) Used to Determine Potency of PTPN1 Inhibitors
Compound activity was determined using in house His tagged full-length PTPN1 protein (SEQ ID NO: 3) in an in vitro enzymatic reaction. The enzymatic assay used to determine activity is a mobility shift assay using a LabChip EZ Reader by Caliper Life Sciences. The enzymatic reaction was carried out in assay buffer (50 mM HEPES pH 7.5, 1 mM EGTA, 10 mM EDTA, 0.01% Tween® 20, and 2 mM DTT). The compounds were dispensed on a white 384 well ProxiPlate™ (PerkinElmer Cat ^#6008289) plate using a Labcyte Echo® liquid handler at varying concentrations (12 point, 1:3 dilution). The enzyme (at 0.5 nM) was incubated with compound for 10 minutes at room temperature. Thereafter, the substrate (phosphorylated insulin receptor probe sequence: ((OG488)-(NH—CH2—CH2—O—CH2—CH2—O—CH2—CO)-T-R-D-I—(PY)-E-T-D-Y—Y—R—K—K—NH2) (SEQ ID NO: 2) was added at 2 μM to the plates and incubated for another 10 minutes at room temperature. Finally, a quench solution (water and 4-bromo-3-(2-oxo-2-propoxyethoxy)-5-(3-{[1-(phenylmethanesulfonyl)piperidin-4-yl]amino}phenyl)thiophene-2-carboxylic acid) was added to the plates, which were then run on the EZ Reader (excitation 488 nm, emission 530 nm) to measure % conversion (the amount of phosphorylated substrate which was de-phosphorylated by PTPN1). […] The % inhibition was then used to calculate the IC50 values.

For test [3], the system named is IFNγ-induced STAT1 phosphorylation (pSTAT1) in B16F10 cells. Nature of the test: B16F10 Phospho-STAT1 HTRF proximal pharmacodynamic (PD) assay. Type of test: cell-based, murine. The following applies: for EC50: B16-F10, B16F10 cells; for Dihydrobenzofuran or Indoline x-fold>potency cellular: x-fold versus corresponding chromane comparator, B16F10 pSTAT1. As to the method: Example III-3: B16F10 (Murine Melanoma Cells) Phospho-STAT1 HTRF Proximal Pharmacodynamic (PD) Assay
B16F10 cells were grown and maintained in high glucose DMEM (Gibco, Catalog^#11965-092, Dun Laoghaire Co Dublin) supplemented with 10% fetal bovine serum (Gibco, Catalog^#10082-139, Dun Laoghaire Co Dublin). The cells were pelleted and resuspended in high glucose DMEM without phenol red (Gibco, Catalog^#11054-020, Dun Laoghaire Co Dublin), supplemented with 10% fetal bovine serum and plated in a 384 well Corning plate (product^#3765, Corning, NY) at 11,000 cells per well in a volume of 20 μL. The cells were dosed with the compounds of interest using an Echo Liquid Handler (Beckman Coulter, Brea, CA) at 50 μM top dose with 3-fold dilutions down to 0.002679 μM for a 10-point dose response. The plate was incubated for 3 hours at 37° C. and subsequently treated with recombinant mouse IFNγ (R&D Systems, Catalog^#485-MI, Minneapolis, MN; 100 nM final concentration) for 10 minutes at 37° C. to induce STAT1 phosphorylation followed by 3.3 μM staurosporine treatment for 1 hour at 37° C. to terminate phosphorylation. Media was then aspirated and 20 μL of 1× lysis buffer/blocking reagent (Cisbio Phospho-STAT1 kit, part^# 63ADK026PEH, Bedford, MA) was added. The plate was placed on a plate shaker for 30 minutes at room temperature, sealed, and stored at −80° C. until needed. To thaw, the plate was placed on shaker at room temperature until completely thawed while the antibody master mix was made (1:40 Phospho-STAT1 Eu Cryptate antibody, 1:40 Phospho-STAT d2 antibody, with the detection buffer; Cisbio Phospho-STAT1 kit, part^#63ADK026PEH, Bedford, MA). The antibody master mix was then dispensed at 4 μL per well into a 384 ProxiPlate Plus (PerkinElmer, part^#6008289, Waltham, MA) and 16 μL of lysate was added from the Corning plate to the Proxiplate using a VIAFLO 384 (INTEGRA). The plate was incubated for 3 hours at room temperature and read on an EnVision® (Perkin Elmer) plate reader with laser excitation at 335 nm and emission at 665 nm. Dotmatics Studies (Bishop's Stortford, UK) was utilized to generate all dose-response curves and calculate EC50s and are shown in Table 2.

The mark [4] stands for this setting: 3 hours compound, 100 nM mouse IFNγ 10 minutes, read-out: B16F10 IFNγ Induced pSTAT1 EC50.
Setting [5] is: Table 3, dihydrobenzofuran or indoline compound (X = O or NH).
[6] abbreviates: Mus musculus, Table 3, dihydrobenzofuran or indoline compound (X = O or NH), read-out: pSTAT1 EC50.

Chain of His tagged full-length PTPN1 protein (P18031 whole entry): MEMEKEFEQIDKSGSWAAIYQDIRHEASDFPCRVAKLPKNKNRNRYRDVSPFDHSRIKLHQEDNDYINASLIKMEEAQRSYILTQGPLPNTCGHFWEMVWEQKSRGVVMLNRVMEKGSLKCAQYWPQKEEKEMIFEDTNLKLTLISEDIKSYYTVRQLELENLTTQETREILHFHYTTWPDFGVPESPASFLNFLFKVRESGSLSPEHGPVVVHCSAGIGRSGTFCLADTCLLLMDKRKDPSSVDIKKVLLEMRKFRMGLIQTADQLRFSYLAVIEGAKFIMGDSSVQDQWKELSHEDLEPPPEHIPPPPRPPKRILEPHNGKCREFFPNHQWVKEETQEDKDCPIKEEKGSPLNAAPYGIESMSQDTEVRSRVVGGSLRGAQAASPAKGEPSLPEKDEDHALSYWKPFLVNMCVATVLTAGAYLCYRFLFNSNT
Chain of His tagged PTPN2 (TC45) protein (P17706 other isoform, or with tags, fused parts or gaps): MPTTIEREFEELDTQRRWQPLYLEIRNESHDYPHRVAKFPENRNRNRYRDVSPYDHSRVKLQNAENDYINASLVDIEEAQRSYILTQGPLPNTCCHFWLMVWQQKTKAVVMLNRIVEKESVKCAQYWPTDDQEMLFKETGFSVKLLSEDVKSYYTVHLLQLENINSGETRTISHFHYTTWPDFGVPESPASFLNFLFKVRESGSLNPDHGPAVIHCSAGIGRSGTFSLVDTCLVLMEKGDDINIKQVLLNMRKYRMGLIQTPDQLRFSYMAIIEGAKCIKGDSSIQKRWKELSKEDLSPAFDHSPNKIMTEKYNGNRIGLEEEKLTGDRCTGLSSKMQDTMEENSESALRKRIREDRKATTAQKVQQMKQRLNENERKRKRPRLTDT

With `O=C1CN(c2c(O)cc3c(c2F)C[C@H](CNCC2COC2)O3)S(=O)(=O)N1` [Compound 120, 5-[(2R)-4-fluoro-6-hydroxy-2-({[(oxetan-3-yl)methyl]amino}methyl)-2,3-dihydro-1-benzofuran-5-yl]-1λ^6,2,5-thiadiazolidine-1,1,3-trione], the IC50 in test [1] (enzyme 0.5 nM, substrate 2 μM) lay in the range of 10 to 100 nM; in test [2] it was 10 to 100 nM. Also, the concentration giving a half-maximal response (EC50) in test [3] (setting [4]) is 1610 nM.

For `O=C1CN(c2c(O)cc3c(c2F)C[C@H](CNCCC2(CO)CCC2)O3)S(=O)(=O)N1` [Compound 121, 5-{(2R)-4-fluoro-6-hydroxy-2-[({2-[1-(hydroxymethyl)cyclobutyl]ethyl}amino)methyl]-2,3-dihydro-1-benzofuran-5-yl}-1λ^6,2,5-thiadiazolidine-1,1,3-trione], the IC50 in test [1] (enzyme 0.5 nM, substrate 2 μM) was in the range of 10 to 100 nM; in test [2] it was 10 to 100 nM. Moreover, in test [3] (setting [4]), the half-maximal effective concentration (EC50) stood at 1740 nM.

For the compound `O=C1CN(c2c(O)cc3c(c2F)C[C@H](CNCCC2(CO)CCCC2)O3)S(=O)(=O)N1` [Compound 122, 5-{(2R)-4-fluoro-6-hydroxy-2-[({2-[1-(hydroxymethyl)cyclopentyl]ethyl}amino)methyl]-2,3-dihydro-1-benzofuran-5-yl}-1λ^6,2,5-thiadiazolidine-1,1,3-trione], the half-inhibitory concentration (IC50) in test [1] (enzyme 0.5 nM, substrate 2 μM) is 10 to 100 nM; in test [2], 10 to 100 nM. Further, the concentration for a half-maximal effect (EC50) in test [3] (setting [4]) came out at 1980 nM.

On to `O=C1CN(c2c(O)cc3c(c2F)C[C@H](CNCCC2CCOCC2)O3)S(=O)(=O)N1` [Compound 125, 5-[(2R)-4-fluoro-6-hydroxy-2-({[2-(oxan-4-yl)ethyl]amino}methyl)-2,3-dihydro-1-benzofuran-5-yl]-1λ^6,2,5-thiadiazolidine-1,1,3-trione], for which the IC50 in test [1] (setting [5]) is 8.32 nM; in test [1] (enzyme 0.5 nM, substrate 2 μM) it was less than 10 nM; in test [2] it was 10 to 100 nM. In addition, the “Dihydrobenzofuran or Indoline x-fold>potency biochemical” value in test [1] turned out to be 2.2. For the same compound, the concentration giving a half-maximal response (EC50) in test [3] (setting [4]) and in test [3] (setting [6]) was 3090 nM each time. Moreover, the “Dihydrobenzofuran or Indoline x-fold>potency cellular” value in test [3] amounted to 10.4.

Take `O=C1CN(c2c(O)cc3c(c2F)C[C@H](CNCCCc2ccccc2)O3)S(=O)(=O)N1` [Compound 127, 5-[(2R)-4-fluoro-6-hydroxy-2-{[(3-phenylpropyl)amino]methyl}-2,3-dihydro-1-benzofuran-5-yl]-1λ^6,2,5-thiadiazolidine-1,1,3-trione]: the concentration for half-maximal inhibition (IC50) in test [1] (setting [5]) is 4.05 nM; in test [1] (enzyme 0.5 nM, substrate 2 μM) it was less than 10 nM; in test [2], 10 to 100 nM. In test [1], the “Dihydrobenzofuran or Indoline x-fold>potency biochemical” value came to 4.7. In addition, the concentration giving a half-maximal response (EC50) in test [3] (setting [4]) and in test [3] (setting [6]) was 10800 nM in each case. In test [3], the “Dihydrobenzofuran or Indoline x-fold>potency cellular” value is recorded as more than 4.6.

With `CC1=C(CCNC[C@H]2Cc3c(cc(O)c(N4CC(=O)NS4(=O)=O)c3F)O2)C(C)(C)CCC1` [Compound 128, 5-[(2R)-4-fluoro-6-hydroxy-2-({[2-(2,6,6-trimethylcyclohex-1-en-1-yl)ethyl]amino}methyl)-2,3-dihydro-1-benzofuran-5-yl]-1λ^6,2,5-thiadiazolidine-1,1,3-trione], the 50% inhibitory concentration (IC50) is 1.81 nM in test [1] (setting [5]); less than 10 nM in test [1] (enzyme 0.5 nM, substrate 2 μM); 10 to 100 nM in test [2]. Also, in test [1], the “Dihydrobenzofuran or Indoline x-fold>potency biochemical” value is reported as 12.5. The EC50 in test [3] (setting [4]) and in test [3] (setting [6]) was more than 50000 nM in each case. Further, in test [3], the “Dihydrobenzofuran or Indoline x-fold>potency cellular” value is recorded as approximately 1.0.

For the compound `O=C1CN(c2c(O)cc3c(c2F)C[C@H](CNCC2CC(c4ccccc4)C2)O3)S(=O)(=O)N1` (stereo partly drawn) [Compound 129, 5-[(2R)-4-fluoro-6-hydroxy-2-({[(3-phenylcyclobutyl)methyl]amino}methyl)-2,3-dihydro-1-benzofuran-5-yl]-1λ^6,2,5-thiadiazolidine-1,1,3-trione], the half-maximal inhibitory concentration (IC50) in test [1] (setting [5]) was 2.51 nM; in test [1] (enzyme 0.5 nM, substrate 2 μM) it was less than 10 nM; in test [2], 10 to 100 nM. Further, the “Dihydrobenzofuran or Indoline x-fold>potency biochemical” value in test [1] is given as 3.3. Further, the concentration giving a half-maximal response (EC50) in test [3] (setting [4]) and in test [3] (setting [6]) was 1290 nM throughout. In addition, the “Dihydrobenzofuran or Indoline x-fold>potency cellular” value in test [3] is listed as more than 38.8.

On to `O=C1CN(c2c(O)cc3c(c2F)C[C@H](CNCC2CCC(C(F)(F)F)CC2)O3)S(=O)(=O)N1` (stereo partly drawn) [Compound 130, 5-{(2R)-4-fluoro-6-hydroxy-2-[({[4-(trifluoromethyl)cyclohexyl]methyl}amino)methyl]-2,3-dihydro-1-benzofuran-5-yl}-1λ^6,2,5-thiadiazolidine-1,1,3-trione], for which the IC50 in test [1] (setting [5]) was 4.38 nM; in test [1] (enzyme 0.5 nM, substrate 2 μM), less than 10 nM; in test [2], 10 to 100 nM. For the same compound, the “Dihydrobenzofuran or Indoline x-fold>potency biochemical” value in test [1] turned out to be 6.1. In addition, the concentration for a half-maximal effect (EC50) in test [3] (setting [4]) and in test [3] (setting [6]) was more than 50000 nM each time. The “Dihydrobenzofuran or Indoline x-fold>potency cellular” value in test [3] is reported as approximately 1.0.

Turning to `O=C1CN(c2c(O)cc3c(c2F)C[C@H](CNCC2(CF)CC2)O3)S(=O)(=O)N1` [Compound 131, 5-{(2R)-4-fluoro-2-[({[1-(fluoromethyl)cyclopropyl]methyl}amino)methyl]-6-hydroxy-2,3-dihydro-1-benzofuran-5-yl}-1λ^6,2,5-thiadiazolidine-1,1,3-trione], the IC50 is 20.9 nM in test [1] (setting [5]); 10 to 100 nM in test [1] (enzyme 0.5 nM, substrate 2 μM); 10 to 100 nM in test [2]. Besides, the “Dihydrobenzofuran or Indoline x-fold>potency biochemical” value in test [1] came to 2.4. Moreover, the 50% effective concentration (EC50) in test [3] (setting [4]) and in test [3] (setting [6]) was 22100 nM each time. Moreover, the “Dihydrobenzofuran or Indoline x-fold>potency cellular” value in test [3] was more than 2.3.

For `CC(C)CNC[C@@H]1Cc2c(cc(O)c(N3CC(=O)NS3(=O)=O)c2F)N1` [Compound 132, 5-[(2S)-4-fluoro-6-hydroxy-2-{[(2-methylpropyl)amino]methyl}-2,3-dihydro-1H-indol-5-yl]-1λ^6,2,5-thiadiazolidine-1,1,3-trione], the IC50 in test [1] (enzyme 0.5 nM, substrate 2 μM) was 10 to 100 nM; in test [2], more than 100 nM. Moreover, the EC50 in test [3] (setting [4]) came out at 4690 nM.

As usually defined, the IC50 is the concentration that inhibits the measured activity by half. Broadly, the EC50 is the concentration giving half of the maximal effect.
